Measurements: patent publication EP3530661A1, “METHOD AND KIT FOR ISOTOPE-LABELLING OF A FOLATE-CONTAINING BIOLOGICAL SAMPLE FOR MASS SPECTROMETRY” (Medizinische Universität Graz, priority 2018, dated 2019)
Each block holds one compound with its values, some of them ahead of it.

What was measured:
[1] = Stability of native folate species in solution (method of Lu et al.), repeated LC-MS injection over 96 h
Description: Native folate species were dissolved in 50:50 methanol:water, 0.1% ascorbic acid, 20 mM ammonium acetate, pH = 6.2, according to the method disclosed in Lu et al. After mixing, they were incubated at 4 °C in the auto sampler and injected repeatedly over a time span of 96h.

HepG2 cells = assay: Methotrexate inhibition experiment in HepG2 cells, LC-MS of folate pools and C1 metabolites; format: cell-based, Human; details: 20 µM, 16 h
Description: Inhibitors of the folate cycle are widely employed in chemotherapeutic treatment of cancer (Gonen et al.). Human liver cancer cell line HepG2 was therefore treated with methotrexate, which inhibits DHFR as trimethoprim does in bacteria: • HepG2 cells were acquired from ATCC (ATCC® HB-8065™) and grown in T75 flasks in RPMI1640 (Gibco, Thermo Fisher Scientific, Switzerland) containing 2 mM Glutamine, 2 g/L glucose and 10 % FBS. 1 mg Methotrexate hydrate (Sigma Aldrich, Buchs SG, Switzerland) was dissolved in 10 µL 1 M sodium hydroxide and diluted with phosphate buffered saline to 1 mL and sterile filtered (2.2 mM Stock solution). At 80 % cell confluence, 20 µM Methotrexate was added to the treatment group (180 µL stock solution per 20 mL medium). 180 µL of phosphate buffered saline containing 1 % (v/v) 1 M sodium hydroxide was added to the control group. 16 h post treatment, cells were harvested by trypsinization and centrifuged at 4 °C and 400 g for 5 min. The supernatant was removed and the cell pellet was briefly washed with 1 mL PBS.
Stabilisation by reductive alkylation according to the present invention: The cell pellet was then resuspended in 0.5 mL ice cold 80 % methanol, containing 30 mM NaCNBD3, 0.2 % Formaldehyde-13C, d2 and 0.1 % acetic acid by pipetting. Samples were incubated on ice for 60 min for the stabilisation of the folate species naturally present in the cells to continue.
Subsequent steps were carried out as described for E.coli in Example 8.

[2] = absence of excess formaldehyde, non-alkaline pH (Strandler et al.); cited from earlier work
E. coli K12 = details: 10 µM
Description: 50 mL LB-Miller medium was inoculated from an overnight culture of E. coli K12 to an OD600 of 0.1 and grown at 37 °C in a 500 mL flask shaking at 300 rpm. OD was measured at 0, 60, 90 min and immediately before harvesting. After reaching an OD of 0.4, trimethoprim was added to the treatment group (5 biological replicates) (0.15 mL of a 1 mg/mL stock solution in methanol; target concentration 10 µM) and the same volume of methanol was added to the control group (5 biological replicates). […] The supernatant was removed.
Stabilisation by reductive alkylation according to the present invention: The cells were immediately resuspended in the stabilising liquid of 0.5 mL ice cold 80 % methanol containing 30 mM NaCNBD3, 0.2 % Formaldehyde-^13C, d2 and 0.1 % acetic acid by pipetting. Samples were incubated on ice for 60 min for the stabilisation of the folate species naturally present in the cells to continue.
Samples were then transferred to microcentrifuge tubes and centrifuged at 16,000 g for 1 min. Supernatants were transferred to a new tube and the pellet was resuspended in 0.5 mL ice cold 80 % methanol, 0.1 % acetic acid and incubated in sonic bath for 15 min. After sonication, the suspension was centrifuged at 16,000 g for 3 min and the supernatant was combined with the previous supernatant. An aliquot of 50 µL was subjected to MS analysis according to Example 2 (not concentrated sample). The remaining 950 µL were dried in a rotary evaporator and resuspended by sonication in 50 µL 80 % methanol, 0.1 % acetic acid for 15 min. Samples were centrifuged at 16,000 g for 3 min and the supernatant was analysed in MS according to Example 2 (concentrated sample).

[3] = 50:50 methanol:water, 0.1% ascorbic acid, 20 mM ammonium acetate, pH = 6.2, 4 °C
[4] = 30 min, vs control, p < 0.001, Fig. 7C

SMILES: CN(Cc1cnc2nc(N)nc(N)c2n1)c1ccc(C(=O)N[C@@H](CCC(=O)O)C(=O)O)cc1 [methotrexate, Methotrexate hydrate]
- domino effect (HepG2 cells): No domino effect was observed
- AICAR (HepG2 cells; vs control): upregulated
- SAH (HepG2 cells; vs control): reduced significantly
- SAM (HepG2 cells; vs control): reduced significantly
- SAM to SAH ratio (HepG2 cells; vs control): reduced significantly
- inosine monophosphate (HepG2 cells; vs control): upregulated
- levels of thymidine (HepG2 cells; vs control): did not change
- serine (HepG2 cells; vs control, Fig. 8B): significantly reduced
- reduced folates (HepG2 cells; vs control, most of the reduced folates, Fig. 8A): significantly reduced
- oxidized pteridines (HepG2 cells; vs control, with the exception of DHF-Glu2, Fig. 8A): no significant increase

SMILES: COc1cc(Cc2cnc(N)nc2N)cc(OC)c1OC [trimethoprim]
- domino effect (increase of reduced folates with low glutamation number, n = 1-2) (E. coli K12; 30 min, most pronounced for THF and 5,10-methenyl THF, Fig. 7B): could be observed
- SAM to S-adenosyhomocysteine (SAH) ratio (E. coli K12; 30 min, vs control): not altered
- folates with oxidized pteridine ring (DHF, FA) (E. coli K12; 30 min, vs control, Fig. 7A): marked increase
- poly-glutamated species with a reduced ring (E. coli K12; 30 min, vs control, Fig. 7A): depleted
- AICAR (E. coli K12; [4]): significantly enriched
- thymidine (E. coli K12; [4]): significantly downregulated
- mean OD600 (E. coli K12; 30 min after adding, control group 0.71): 0.63

The next lines start with results.

- oxidation upon addition of ascorbic acid ([1]; 0.1% ascorbic acid, pH = 6.2, 4 °C): to some extent
SMILES: Nc1nc2c(c(=O)[nH]1)N=C(CNc1ccc(C(=O)N[C@@H](CCC(=O)O)C(=O)O)cc1)CN2 [DHF, dihydrofolic acid]

- half life (degradation to 5- or 10-formyl THF) [1, 3]: less than 3 h
- signal at the retention time of 10 min relative to that obtained by flow injection ([1]; chromatographic conditions pH 9.2, 30 °C): 11 % (AUC)
SMILES: Nc1nc2c(c(=O)[nH]1)[N+]1=CN(c3ccc(C(=O)NC(CCC(=O)O)C(=O)O)cc3)CC1CN2 (stereo not shown) [5,10-methenyl THF]

- half life [1, 3]: below 30 min
SMILES: Nc1nc2c(c(=O)[nH]1)N1CN(c3ccc(C(=O)NC(CCC(=O)O)C(=O)O)cc3)CC1CN2 (stereo not shown) [5,10-methylen folate, 5,10-methylene THF]
- dissociation to formaldehyde and THF [2]: dissociate rapidly
